In PMC12858405, “Ideal efficacy photoswitching for chromocontrol of TRPC4/5 channel functions in live tissues” (Nature Chemical Biology, 2026):

Molecular target: T1, EA-activated TRPC5 (Mus musculus, UniProt Q9QX29)
T1 construct: expressed in transfected cells; host or cells: HEK293-mTRPC5-YFP
T1 sequence (Q9QX29 1-975): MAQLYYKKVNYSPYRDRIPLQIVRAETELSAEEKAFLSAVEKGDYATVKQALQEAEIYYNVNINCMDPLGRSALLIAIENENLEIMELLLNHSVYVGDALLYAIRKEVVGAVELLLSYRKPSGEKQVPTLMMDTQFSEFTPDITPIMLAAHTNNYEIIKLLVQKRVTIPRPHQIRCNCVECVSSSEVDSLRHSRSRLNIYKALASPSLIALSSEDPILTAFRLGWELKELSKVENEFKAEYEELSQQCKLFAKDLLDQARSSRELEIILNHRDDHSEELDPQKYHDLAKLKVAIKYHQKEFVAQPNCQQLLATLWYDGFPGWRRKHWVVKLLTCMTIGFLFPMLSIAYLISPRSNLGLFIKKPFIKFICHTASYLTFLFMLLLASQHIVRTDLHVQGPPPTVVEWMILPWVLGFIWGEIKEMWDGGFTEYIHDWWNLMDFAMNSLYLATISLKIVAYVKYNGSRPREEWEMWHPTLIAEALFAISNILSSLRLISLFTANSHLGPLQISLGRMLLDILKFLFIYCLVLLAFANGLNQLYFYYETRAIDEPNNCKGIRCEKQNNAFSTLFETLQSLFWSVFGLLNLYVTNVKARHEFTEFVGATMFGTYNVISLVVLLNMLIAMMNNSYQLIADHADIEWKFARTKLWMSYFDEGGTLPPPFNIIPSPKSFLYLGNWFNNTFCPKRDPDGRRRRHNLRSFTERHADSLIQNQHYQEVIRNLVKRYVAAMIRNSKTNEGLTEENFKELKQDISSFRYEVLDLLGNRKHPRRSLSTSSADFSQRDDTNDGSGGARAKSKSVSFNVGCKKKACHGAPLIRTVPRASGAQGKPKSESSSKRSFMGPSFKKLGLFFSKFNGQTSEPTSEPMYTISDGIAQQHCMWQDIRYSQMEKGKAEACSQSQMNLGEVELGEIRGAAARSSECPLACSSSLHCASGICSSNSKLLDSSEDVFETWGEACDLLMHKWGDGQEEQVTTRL
Assay: FLIPR Ca2+ assay, E isomers silencing EA-activated TRPC5 (HEK293-mTRPC5-YFP)
Format: cell-based
Excerpt: Müller, Niemeyer, et al., Schaefer & Thorn-Seshold 2025: Ideal Efficacy Photoswitching of TRPC4/5 in Tissue but it can justify why the affinity of the E/Z-isomers may be similar.
(2) The EC50 values are reported as the midpoints of unconstrained sigmoidal fits to the FLIPR data (Fig 1l and Supplementary Fig. 2): with different levels of channel activation / blocking and very different Hill slopes across different compounds, isomers, and the two channels. This argues that the midpoint values only capture one of the several important factors describing the […]
We believe that it is possible to derive indicative relative values for binding affinity comparing the E and Z isomers of the same compound using only the combination of FLIPR and ephys data as reported in this paper; this analysis is being developed in a separate paper (see also below).
Supplementary Table 1. Potencies on TRPC4/5 depicted as either simple agonistic potency (blue) or else inhibitory […]
. Z*-values refer to mostly-Z-isomer reached at PSS at 365 nm, E*-values refer to experiments that initially applied 100% E-isomer (thermally relaxed), though in both cases the Ca2+ imaging in FLIPR with Fluo4-AM uses 470 nm excitation, which may over time promote photoswitching towards a PSS that is intermediate between those of pure-365 nm and all-E; this is controlled for in the more reliable ephys measurements). (Table indices: a, data from ref7; b, data from ref2; c, data from ref3; d, data from ref8.) EC50 [nM] (for simple agonism or EA-competitive inhibition)
E-AzPico 90 (vs 30 nM EA) 67 (vs 30 nM EA) […]
orange: inhibitory effect ag.: agonistic effect
1.1.1 From always-active antagonists and agonists towards efficacy photoswitches […]
photoisomerising an azobenzene that is merged in at the C’4 position yielding the compounds […]
inhibitory effect for the E-isomers (Supplementary Table 1). Essentially, the effects of Pico145 and AM237 are latent within a single (two-state reversibly photoswitchable) molecule. This combination is what we call an efficacy switch (also see main text Fig. 1e-j).
1.1.2 Mechanistic test for efficacy photoswitching […]
deliver (Fig. 1-2) is a powerful support for an efficacy switch interpretation. To indirectly support this further, we also measured the effects of E-AzPico and E-AzHC against EA-activated TRPC4/5.
Both E-isomers bind to TRPC4/5 and inhibit EA-evoked currents with nanomolar potencies (Supplementary Fig. 2, Supplementary Table 2). This supports the hypothesis that E- […]
to be an EA-competitive binder5,9,10), so their efficacy as single agent photoswitches results from E/Z-competitive binding that is determined by their PSS. […]
Supplementary Table 2. […] (a Inhibitory effect measured against 30 nM EA; b Inhibitory effect measured against 50 nM EA). […]

Cn1c(=O)n(CCCO)c(=O)c2c1nc(Oc1ccc(/N=N/c3ccccc3)c(OC(F)(F)F)c1)n2Cc1ccc(Cl)cc1 [E-AzPico]
IC50 (Inhibitory IC50 (versus 30 nM EA) TRPC5, E isomer, thermally relaxed, 30 nM EA): 0.067 µM
IC50 (Inhibitory IC50 (versus 50 nM EA) TRPC5, E isomer, 50 nM EA): 0.069 µM
